Test results published in patent US20220259202A1, “1-(4-(AMINOMETHYL)BENZYL)-2-BUTYL-2H-PYRAZOLO[3,4-C]QUINOLIN-4-AMINE DERIVATIVES AND RELATED COMPOUNDS AS TOLL-LIKE RECEPTOR (TLR) 7/8 AGONISTS, AS WELL AS ANTIBODY DRUG CONJUGATES THEREOF FOR USE IN CANCER THERAPY AND DIAGNOSIS” (SUTRO BIOPHARMA, INC., priority 2019, published 2022).

Tests used:
[1] = target: T1, mouse TLR13 (Mus musculus, UniProt Q6R5N8); experiment: HEK293 SEAP reporter assay, other TLRs (Biological Example 3); assay type: cell-based; settings: 16 hrs, up to 1 μM
T1 construct: host or cells: HEK293
T1 sequence (Q6R5N8 69-991): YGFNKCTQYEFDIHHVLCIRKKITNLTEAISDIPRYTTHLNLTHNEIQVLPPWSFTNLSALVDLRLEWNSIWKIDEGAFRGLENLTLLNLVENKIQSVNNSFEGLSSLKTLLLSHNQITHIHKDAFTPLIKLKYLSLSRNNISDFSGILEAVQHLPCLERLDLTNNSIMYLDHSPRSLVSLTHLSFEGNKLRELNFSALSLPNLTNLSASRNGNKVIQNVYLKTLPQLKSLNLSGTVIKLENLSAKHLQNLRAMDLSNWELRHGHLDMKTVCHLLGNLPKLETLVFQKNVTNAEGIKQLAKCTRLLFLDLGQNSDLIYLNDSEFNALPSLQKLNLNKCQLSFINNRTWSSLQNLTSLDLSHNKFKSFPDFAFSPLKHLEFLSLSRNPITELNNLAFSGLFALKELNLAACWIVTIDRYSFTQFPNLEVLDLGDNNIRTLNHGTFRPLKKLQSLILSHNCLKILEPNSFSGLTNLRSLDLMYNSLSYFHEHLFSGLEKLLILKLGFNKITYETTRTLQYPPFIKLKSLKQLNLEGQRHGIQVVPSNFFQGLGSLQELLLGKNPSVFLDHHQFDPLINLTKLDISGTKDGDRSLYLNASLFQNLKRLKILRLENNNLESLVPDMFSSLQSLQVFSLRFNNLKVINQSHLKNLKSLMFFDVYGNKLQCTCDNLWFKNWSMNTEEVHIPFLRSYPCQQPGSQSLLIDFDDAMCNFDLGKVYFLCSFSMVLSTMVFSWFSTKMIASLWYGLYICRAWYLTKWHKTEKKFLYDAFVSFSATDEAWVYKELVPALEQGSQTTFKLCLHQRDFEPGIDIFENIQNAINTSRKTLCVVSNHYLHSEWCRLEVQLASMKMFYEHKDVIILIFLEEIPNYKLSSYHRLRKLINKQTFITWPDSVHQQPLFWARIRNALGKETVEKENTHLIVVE
From the text: (§1) In this example, the activity of the Compound 1 to stimulate different human and mouse TLR pathways was investigated on HEK293 cells transfected with inducible SEAP (secreted embryonic alkaline phosphatase) reporter genes and also expressing different human TLRs (TLR2, TLR3, TLR4, TLR5, TLR7, TLR8, TLRS) or mouse TLRs (TLR2, TLR3, TLR4, TLR5, TLR7, TLR8, TLR13). Compound A
(§2) HEK293 reporter cell lines were purchased from Invivogen and cell lines were maintained in manufacture recommended culture medium with required supplemental antibiotics. On the day of assay, the cells were harvested with Accutase and counted by the Vi-CELL Cell Viability Analyzers. Cells were re-suspended in HEK blue detection medium and a total of 10000 cells were seeded in each well of a 384-well flat bottom plate. […] Assay plates were cultured at 37° C. in a CO2 incubator for 16 hrs. HEK-Blue™ Detection medium changes to a purple/blue color in the presence of secreted SEAP, which can be detected by spectrophotometry at 620-655 nm. Data was fitted with non-linear regression analysis, using a log(inhibitor) vs. response-variable slope, 3-parameter fit with GraphPad Prism.

[2] = target: T2, mouse TLR7 (Mus musculus, UniProt P58681); experiment: as above; assay type: cell-based; settings: 16 hrs, * = Estimated
T2 construct: host or cells: HEK293
T2 sequence (P58681 27-1050): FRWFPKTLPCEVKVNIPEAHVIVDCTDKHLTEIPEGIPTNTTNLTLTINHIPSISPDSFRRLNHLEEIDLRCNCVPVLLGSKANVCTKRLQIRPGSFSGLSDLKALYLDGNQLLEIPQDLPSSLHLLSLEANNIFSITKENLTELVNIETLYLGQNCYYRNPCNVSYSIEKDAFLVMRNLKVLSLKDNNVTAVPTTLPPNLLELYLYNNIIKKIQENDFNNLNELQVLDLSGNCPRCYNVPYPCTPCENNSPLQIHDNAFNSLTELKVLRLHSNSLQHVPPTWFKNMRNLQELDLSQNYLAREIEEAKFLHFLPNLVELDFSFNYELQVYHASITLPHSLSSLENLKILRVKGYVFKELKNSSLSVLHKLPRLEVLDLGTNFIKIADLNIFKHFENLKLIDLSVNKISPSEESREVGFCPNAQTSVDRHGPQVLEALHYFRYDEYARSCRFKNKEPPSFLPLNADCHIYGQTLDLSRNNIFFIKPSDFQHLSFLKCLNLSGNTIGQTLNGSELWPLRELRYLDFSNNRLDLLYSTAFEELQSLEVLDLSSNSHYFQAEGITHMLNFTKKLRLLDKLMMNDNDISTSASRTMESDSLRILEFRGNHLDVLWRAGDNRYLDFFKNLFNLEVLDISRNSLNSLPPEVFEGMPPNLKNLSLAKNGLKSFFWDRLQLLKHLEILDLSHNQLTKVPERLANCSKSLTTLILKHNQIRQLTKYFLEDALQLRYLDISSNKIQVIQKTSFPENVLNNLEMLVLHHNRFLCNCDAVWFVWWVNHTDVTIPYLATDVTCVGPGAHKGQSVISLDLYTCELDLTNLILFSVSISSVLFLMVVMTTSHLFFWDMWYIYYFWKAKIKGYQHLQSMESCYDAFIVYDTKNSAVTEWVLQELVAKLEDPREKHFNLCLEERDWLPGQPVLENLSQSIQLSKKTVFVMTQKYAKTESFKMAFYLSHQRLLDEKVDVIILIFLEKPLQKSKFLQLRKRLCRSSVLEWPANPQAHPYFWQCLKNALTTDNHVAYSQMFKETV
From the text: as §1, §2

| EC50 [1] [nM] | EC50 [2] [nM] | Structure (SMILES) |
| --- | --- | --- |
| > 1000 | ~21.8 | CCCCn1nc2c(N)nc3ccccc3c2c1Cc1ccc(CN)cc1 [Compound 1, 1-(4-(aminomethyl)benzyl)-2-butyl-2H-pyrazolo[3,4-c]quinolin-4-amine] |
| > 1000 | 15.9 | CCCCc1nc2c(N)nc3ccccc3c2n1Cc1ccc(CN)cc1 [Compound A, reference compound] |
